From patent publication US6465654B2, “Process for preparing 1-substituted, 2-substituted 1H-imidazo[4, 5-c]quinoline-4-amines” (3M Innovative Properties Company, priority 1991, dated 2002)

Tests used:
[1] = system: Herpes simplex virus Type II strain 333; assay: Antiviral activity in guinea pigs infected with Herpes simplex virus Type II (lesion inhibition); format: in vivo; conditions: oral once daily for four days, dose 2 mg/kg
Excerpt: Female Hartley guinea pigs weighing 200 to 250 g are anesthetized with methoxyflurane (available under the […] from Pitman-Moore, Inc., Washington Crossing, N.J.), after which the vaginal area is swabbed with a dry cotton swab. The guinea pigs are then infected intravaginally with a cotton swab saturated with Herpes simplex virus Type II strain 333 (1×10^5 plaque forming units/mL). Guinea pigs are assigned to groups of 7 animals; one group for each treatment and one to serve as a control (vehicle treated). The compounds of the invention are formulated in water containing 5% Tween 80 (a polyoxyethylene sorbitan monooleate available from Aldrich Chemical Company, Inc., Milwaukee, Wis.). The, guinea pigs are treated orally once daily for four consecutive days starting 24 hours after infection. Antiviral activity is evaluated by comparing lesion development in compound-treated versus vehicle-treated guinea pigs. […] The maximum lesion score of each guinea pig is used to calculate the percentage lesion inhibition. The percentage lesion inhibition is calculated as follows: […]

interferon [2] = assay: Interferon induction in mice; format: in vivo; conditions: mouse serum
Summary of the method: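 Mouse serum collected at 1, 2 and 4 h (separate groups), pooled, stored at −70° C, then assayed as for human-cell interferon. Values in α/β reference units/mL against a mouse MU-1-IF standard; "<" marks levels below assay sensitivity.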

interferon [3] = assay: Interferon induction in guinea pigs (serum interferon titer); format: in vivo; conditions: guinea pig serum 24 hours after initial oral dose, 2 mg/kg
Excerpt: Female Hartley guinea pigs weighing 200 to 250 g are anesthetized with methoxyflurane (available under the […] from Pitman-Moore, Inc., Washington Crossing, N.J.), after which the vaginal area is swabbed with a dry cotton swab. The guinea pigs are then infected intravaginally with a cotton swab saturated with Herpes simplex virus Type II strain 333 (1×10^5 plaque forming units/mL). Guinea pigs are assigned to groups of 7 animals; one group for each treatment and one to serve as a control (vehicle treated). The compounds of the invention are formulated in water containing 5% Tween 80 (a polyoxyethylene sorbitan monooleate available from Aldrich Chemical Company, Inc., Milwaukee, Wis.). The, guinea pigs are treated orally once daily for four consecutive days starting 24 hours after infection. Twenty-four hours after the initial dose of test compound has been administered, blood is obtained from 3 guinea pigs from each treatment group by cardiac puncture of methoxyflurane anesthetized animals. Blood is pooled and allowed to clot at room temperature. After low speed centrifugation, serum is collected and stored at -70° C. until analysis. Interferon levels in the guinea pig serum are determined in a standard microtiter assay using transformed guinea pig cells (ATCC CRL 1405). The interferon assay is done in 96 well microtiter plates. Confluent monolayers of transformed guinea pig cells are treated with dilutions of guinea pig serum made with medium 199 (GIBCO, Grand Island, N.Y.). The cell and serum dilutions are incubated at 37° C. overnight. The following day, the medium and serum are removed and about 10 plaque forming units of Mengovirus are added to each well. Controls consist of wells that receive no guinea pig serum (virus positive control) and wells that receive no virus (virus negative control). Cells and virus are incubated for 2 to 3 days at 37° C. before quantifying for viral cytopathic effect. The viral cytopathic effect is quantified by staining with 0.05% crystal violet followed by spectrophotometric absorbance measurements. The titer of interferon in serum is expressed as units/mL and is the reciprocal of the highest dilution that protects cells from virus.

interferon-α [4] = assay: Interferon-α induction in human cells, PBM; format: cell-based; conditions: 24 hours
MC-26 colon tumor cells = assay: Inhibition of MC-26 tumors in mice, 14 day lung colony count; format: in vivo; conditions: lung colonies day 14, 4×10^4 MC-26 cells i.v., oral 30 mg/kg on days 3-7 and 10-14; control 385 ± 31
Protocol: The mice are sacrificed 14 days later. […] Five mice are in each treatment group and comparisons are made to controls. […] The mice in the control groups were dosed orally with saline (10 mL/kg) on days 3, 4, 5, 6, and 7, and with water (10 mL/kg) on days 10, 11, 12, 13, and 14.

[5] = system: vesicular stomatitis virus (VSV); assay: microbe, parasite or virus in culture; format: cell-based; conditions: Vesicular stomatitis virus, read-out: VSV Yield Inhibition
interferon-α [6] = assay: Interferon-α induction in human cells, diluted whole blood; format: cell-based; conditions: 24 hours

SMILES	% Lesion Inhibition [1] [%]	Interferon induction in mice (interferon [2]; oral 1 mg/kg, 1 hr) [Reference Units/mL]	Interferon induction in mice (interferon [2]; oral 1 mg/kg, 2 hr) [Reference Units/mL]	Interferon induction in mice (interferon [2]; oral 1 mg/kg, 4 hr)	Interferon induction in mice (interferon [2]; oral 3 mg/kg, 1 hr)	Interferon induction in mice (interferon [2]; oral 3 mg/kg, 2 hr)	Interferon induction in mice (interferon [2]; oral 3 mg/kg, 4 hr) [Reference Units/mL]	Interferon induction in mice (interferon [2]; oral 10 mg/kg, 1 hr) [Reference Units/mL]	Interferon induction in mice (interferon [2]; oral 10 mg/kg, 2 hr)	Interferon induction in mice (interferon [2]; oral 10 mg/kg, 4 hr)	Interferon-α induction (interferon-α [4]; dose concentration 0.01 μg/mL)	Interferon-α induction (interferon-α [4]; dose concentration 0.05 μg/mL)	Interferon-α induction (interferon-α [4]; dose concentration 0.10 μg/mL)	Interferon-α induction (interferon-α [4]; dose concentration 0.50 μg/mL)	Interferon-α induction (interferon-α [4]; dose concentration 1.0 μg/mL)	Interferon-α induction (interferon-α [4]; dose concentration 5.0 μg/mL)	Interferon induction in mice (interferon [2]; oral 0.3 mg/kg, 1 hr)	Interferon induction in mice (interferon [2]; oral 0.3 mg/kg, 2 hr)	Interferon induction in mice (interferon [2]; oral 0.3 mg/kg, 4 hr)	Number of Colonies (MC-26 colon tumor cells)	other results
CC(C)Cn1c(CO)nc2c(N)nc3ccccc3c21 [Example 9, 4-Amino-1-(2-methylpropyl)-1H-imidazo-[4,5-c]quinoline-2-methanol]	37	<47	<47	<47 Reference Units/mL	≦47 Reference Units/mL	≦47 Reference Units/mL	<47	330	740 Reference Units/mL	≦47 Reference Units/mL	<1.8 α Reference Units/mL	16 α Reference Units/mL	140 α Reference Units/mL	750 α Reference Units/mL	750 α Reference Units/mL	750 α Reference Units/mL					Interferon induction in mice (interferon [2]; oral 30 mg/kg, 1 hr): 2900 Reference Units/mL; Interferon induction in mice (interferon [2]; oral 30 mg/kg, 2 hr): 5000 Reference Units/mL; Interferon induction in mice (interferon [2]; oral 30 mg/kg, 4 hr): 4 Reference Units/mL; Reference Units/mL (interferon in serum) (interferon [3]): 266 Units/mL
COCCn1c(COC)nc2c(N)nc3ccccc3c21 [Example 37, 1-(2-Methoxyethyl)-2-methoxymethyl-1H-imidazo[4,5-c]quinolin-4-amine]		<120	<120	<120 Reference Units/mL	<120 Reference Units/mL	<120 Reference Units/mL	<120	270	≦270 Reference Units/mL	≦270 Reference Units/mL			<4 α Reference Units/mL	2500 α Reference Units/mL	2500 α Reference Units/mL	210 α Reference Units/mL	<120 Reference Units/mL	<120 Reference Units/mL	<120 Reference Units/mL	123 ± 31	
COCc1nc2c(N)nc3ccccc3c2n1CC(C)C [Example 34, 2-Methoxymethyl-1-(2-methylpropyl)-1H-imidazo[4,5-c]quinolin-4-amine]		140	320	≦61 Reference Units/mL	420 Reference Units/mL	420 Reference Units/mL	140	1100	1100 Reference Units/mL	180 Reference Units/mL	<4 α Reference Units/mL	<4 α Reference Units/mL	1600 α Reference Units/mL	550 α Reference Units/mL	180 α Reference Units/mL	200 α Reference Units/mL	≦61 Reference Units/mL	≦61 Reference Units/mL	≦61 Reference Units/mL	196 ± 20	
CSCc1nc2c(N)nc3ccccc3c2n1Cc1ccccc1 [Example 31, 2-Methylthiomethyl-1-phenylmethyl-1H-imidazo-[4,5-c]quinolin-4-amine]		<61	140	≦61 Reference Units/mL	420 Reference Units/mL	420 Reference Units/mL	320	960	5000 Reference Units/mL	550 Reference Units/mL	<4 α Reference Units/mL	18 α Reference Units/mL	2500 α Reference Units/mL	370 α Reference Units/mL	280 α Reference Units/mL	370 α Reference Units/mL	<61 Reference Units/mL	<61 Reference Units/mL	<61 Reference Units/mL	221 ± 37	log reduction at 1 µg/mL [5]: 5; log reduction at 5 µg/mL [5]: 5; log reduction at 10 µg/mL [5]: 6
CC(C)Cn1c(C(C)O)nc2c(N)nc3ccccc3c21 (stereo not drawn) [Example 20, 4-Amino-α-methyl-1-(2-methylpropyl)-1H-imidazo[4,5c]-quinoline-2-methanol]	100	140	560	<47 Reference Units/mL	970 Reference Units/mL	1200 Reference Units/mL	140	2200	5000 Reference Units/mL	100 Reference Units/mL	<1.8 α Reference Units/mL	190 α Reference Units/mL	190 α Reference Units/mL	1000 α Reference Units/mL	1000 α Reference Units/mL	1000 α Reference Units/mL					Interferon induction in mice (interferon [2]; oral 30 mg/kg, 1 hr): 2200 Reference Units/mL; Interferon induction in mice (interferon [2]; oral 30 mg/kg, 2 hr): 8700 Reference Units/mL; Interferon induction in mice (interferon [2]; oral 30 mg/kg, 4 hr): 320 Reference Units/mL; Interferon-α induction (interferon-α [6]; dose concentration 0.10 μg/mL): 85 α Reference Units/mL; Interferon-α induction (interferon-α [6]; dose concentration 0.50 μg/mL): 440 α Reference Units/mL; Interferon-α induction (interferon-α [6]; dose concentration 1.0 μg/mL): 250 α Reference Units/mL; Interferon-α induction (interferon-α [6]; dose concentration 5.0 μg/mL): 190 α Reference Units/mL
